# Target: Parkin (Homo sapiens, UniProt O60260)
# Assay: Parkin pUB Auto-ubiquitinylation Assay (TR-FRET)
# Format: biochemical
# Settings: not given
# Excerpt: A Parkin pUB Auto-ubiquitinylation Assay is used to evaluate a compound's potency to activate Parkin's ability to Auto-ubiquitinylate itself.
# The principle of this assay is that the E3 Ligase Parkin catalyzes the transfer of Ubiquitin to target proteins, but also has the ability to auto-ubiquitinylate itself. The phospho-Ubiquition (pUb) added to the assay alters the Parkin to a state where small molecule activators can enable the Parkin to auto-ubiquitinylate though the E1-E2 cascade reaction. The use of a Eu cryptate Ubiquition and anti 6His-d2 that binds to the His tagged Parkin will give a signal when the Eu cryptate Ubiquition is auto-ubiquitinylate onto the Parkin which can be monitored by TR-FRET.
# Similar to the Activity-based probe assay in Example 2, screening for activating compounds can be distinguished from the controls as follows: • 100% activation signal=pUb activated Parkin+40 nM control activator in DMSO. • 0% activation signal=pUb activated Parkin+DMSO only. • Parkin activators can be identified by an increase of the 0% activation signal TR-FRET signal. Materials: • Assay Plate: White 384 well plate (Corning 3572) • Enzyme 1: E1 (Ubiquitin-activating enzyme/UBE1 Boston Biochem E-305) • Enzyme 2: E2 (UBcH7/Ube2L3 Boston Biochem E2-640) • Enzyme 3: Parkin-His tagged 203 μM (10.5 mg/ml) • pUb: Phospho-Ubiquitin (S65) (Boston Biochem U-102) • Eu Cryptate Reagent: Ubiquitin Eu (CisBio 61UBIKLA) • DMSO: DMSO (Sigma-34869-2.5L) • Reaction Buffer: 50 mM HEPES, 50 mM NaCl, 1 mM MgCl2, 0.005% Tween 20, 0.1% PF-127 (Fisher Scientific 50-310-494), pH 8.5 • Detection Buffer: 50 mM HEPES, 50 mM NaCl, 800 mM KF, 5 mM EDTA, 0.005% Tween 20, 0.1% PF-127, pH 8.5 • Detection Reagent Z: 13.4 nM Anti-6His-d2 in detection buffer • d2 Reagent: Anti-6His-d2 (CisBio 61HISDLA)
# Enzyme Reaction (15 min pre-incubation with Parkin, pUb and activator only) • Parkin: 196 nM • pUb: 196 nM • DMSO: 1% DMSO • E1: 5 nM • E2: 50 nM • Ubiquitin Eu: 8.8 nM • Reaction time: 120 minutes • Temperature: 22° C. • Total volume: 10 μl reaction
# Take 10 μl of Enzyme Reaction above and add 10 μl detection Reagent Z under the following conditions:
# Assay Procedure: • 1) Load assay plate wells with 4.9 μl 400.0 nM Parkin, 400 nM pUb in reaction buffer by use of Eppendorf 12-channel pipette. • 2) Deliver 0.1 μl 100× activator candidates in DMSO by use of Echo 555 compound dispenser. Highest 100× concentration=100 μm and then twofold dilutions. Add each compound and control in duplicate wells. • 3) Spin 1000 rpm, 2 minutes, at room temp. • 4) Incubate plate for 15 minutes at room temp. • 5) Add 5 μl 10 nM E1, 100 nM E2, 17.6 nM Ubiquitin Eu and 2 mM ATP in Reaction Buffer by use of Eppendorf 12-channel pipette. • 6) Spin 1000 rpm, 2 minutes, at room temp. • 7) Incubate plate for 120 minutes at room temp. • 8) Add 10 μl 13.4 nM anti his d2 in detection buffer by use of Eppendorf 12-channel pipette. • 9) Spin 1000 rpm, 2 minutes, at room temp. • 10) Incubate plate for 120 minutes at room temp. • 11) Read plates on Perkin Elmer Envision instrument with the following parameters: • LANCE dual laser protocol loaded into the Envision® software • Top Mirror: LANCE/DELFIA Duel/Bias (Bar code 446) • Emission Filter: APC 665 EM (Bar code 205) • 2nd Emission Filter: Europium 615 EM (Bar code 203) • Read 655 nm (channel 1) and 615 nm (channel 2) wavelengths on Envision®
# Data Analysis: The Data can be read in CSV files. There are two tables in those CSV files, which are the values of 655 nm (channel 1) and 615 nm (channel 2) wavelengths respectively. The data is converted to an HTRF Ratio=(Channel 1/Channel 2)*10,000
# The average of all the 0 uM controls (DMSO only)=BKGD (Background—0% activation). Subtract BKGD from each HTRF Ratio value=HTRF-BKGD. The average of all the […] control activator in DMSO controls=Max (100% activation). The following equation is then used to calculate % Activation for each well/candidate as follows: % Activation=(HTRF-BKGD/Max)*100. […]
# Parkin, sequence (O60260 whole entry, other chains not shown): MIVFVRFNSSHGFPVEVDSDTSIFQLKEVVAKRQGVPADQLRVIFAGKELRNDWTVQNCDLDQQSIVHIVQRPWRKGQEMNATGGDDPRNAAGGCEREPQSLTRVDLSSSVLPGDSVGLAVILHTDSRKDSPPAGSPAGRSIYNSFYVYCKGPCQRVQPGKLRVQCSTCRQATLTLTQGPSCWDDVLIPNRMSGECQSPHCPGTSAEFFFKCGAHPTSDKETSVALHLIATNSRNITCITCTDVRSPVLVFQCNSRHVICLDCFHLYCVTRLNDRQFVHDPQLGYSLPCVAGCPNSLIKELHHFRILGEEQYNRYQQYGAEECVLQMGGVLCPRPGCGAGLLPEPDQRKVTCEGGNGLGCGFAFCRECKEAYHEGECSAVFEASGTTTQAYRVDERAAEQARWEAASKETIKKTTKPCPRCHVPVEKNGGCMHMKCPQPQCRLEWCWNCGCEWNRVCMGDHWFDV
row,SMILES,Parkin activity in an auto-ubiquitination assay
1,"O=C(Nc1nc(NC(=O)c2ccccc2)n(-c2ccccc2)n1)c1ccccc1 [Compound A, N,N′-(1-phenyl-1H-1,2,4-triazole-3,5-diyl)dibenzamide]",increases
2,"O=C(/C=C/c1ccccc1)Nc1nc(NC(=O)c2ccccc2)nn1-c1ccccc1 [Compound C, N-(5-cinnamamido-1-phenyl-1H-1,2,4-triazol-3-yl)benzamide]",increases

# Same assay, conditions: Parkin activation, pUb activated Parkin; read-out: Auto-ubiq EC50 (μM) [Example 3]
row,SMILES,EC50
1,O=C(Nc1nc(Nc2cc(N3CCCC3)nc3ccccc23)n(-c2ccccc2)n1)c1ccccc1 [Compound A1],> 40 µM
2,CN(C(=O)c1ccccc1)c1nc(NC(=O)c2ccccc2)nn1-c1ccccc1 [V],> 40 µM
3,CN(C(=O)c1ccccc1)c1nc(NC(=O)c2ccccc2)n(-c2ccccc2)n1 [G],> 40 µM
4,O=C(Nc1nc(Nc2ncnc3ccccc23)n(-c2ccccc2)n1)c1ccco1 [Z],> 40 µM
5,"O=C(Nc1nc(NC(=O)c2ccccc2)n(-c2ccccc2)n1)c1ccccc1 [Compound A, N,N′-(1-phenyl-1H-1,2,4-triazole-3,5-diyl)dibenzamide]",2.3 µM
6,O=C(Nc1nc(Nc2nccc3ccccc23)n(-c2ccccc2)n1)c1ccccc1 [U],> 40 µM
7,O=C(Nc1nc(NC(=O)c2ccccc2)n(-c2cccc3cccnc23)n1)c1ccccc1 [Compound O2],> 40 µM
8,O=C(Nc1nc(NC(=O)c2ccccc2)n(-c2ccc(-c3ccccc3)cc2)n1)c1ccccc1 [Compound X1],> 40 µM
9,Cc1ccccc1C(=O)Nc1nc(C2CCOCC2)nn1-c1ccccc1 [Compound V2],> 40 µM
10,O=C(Nc1nc(NC(=O)c2cccs2)nn1-c1ccccc1)c1ccccc1 [Compound G2],> 40 µM
11,O=C(Nc1nc(NC(=O)c2cc3ccccc3s2)n(-c2ccccc2)n1)c1ccccc1 [Compound A2],> 40 µM
12,CCN(CC)c1cc(Nc2nc(NC(=O)c3ccccc3)nn2-c2ccccc2)ncn1 [Compound F1],> 40 µM
13,C/C=C/C(=O)Nc1nc(Nc2ncnc3ccccc23)n(-c2ccccc2)n1 [Compound L1],> 40 µM
14,O=C(Nc1nc(Nc2cc(N3CCCC3)ncn2)n(-c2ccccc2)n1)c1ccccc1 [Compound G1],> 40 µM
15,Cc1ccccc1C(=O)Nc1nc(-c2ccncc2)nn1-c1ccccc1 [Compound S2],> 40 µM
16,Nc1nc(Nc2nc(NC(=O)c3ccccc3)nn2-c2ccccc2)nc2ccccc12 [Compound N1],> 40 µM
17,Cc1ccccc1-n1nc(NC(=O)c2ccccc2)nc1NC(=O)c1ccccc1 [M],> 40 µM
18,"Cc1ccccc1C(=O)Nc1nc(NC(=O)c2ccccc2)nn1-c1ccccc1 [Compound K, N-(5-benzamido-2-phenyl-1,2,4-triazol-3-yl)-2-methyl-benzamide]",> 40 µM
19,C=C(C)C(=O)Nc1nc(Nc2ncnc3ccccc23)n(-c2ccccc2)n1 [Compound M1],> 40 µM
20,"O=C(Nc1nc(NC(=O)c2ccccc2)n(-c2ccc(I)cc2)n1)c1ccccc1 [Compound E, N-[5-benzamido-1-(4-iodophenyl)-1,2,4-triazol-3-yl]benzamide]",> 40 µM
21,O=C(Nc1nc(NC(=O)c2ccccc2)n(-c2ccc3ncccc3c2)n1)c1ccccc1 [Compound J2],> 40 µM
22,Nc1nc(Nc2nc(NC(=O)c3ccccc3)nn2-c2ccccc2)c2ccccc2n1 [Compound J1],> 40 µM
23,O=C(Nc1nc(NC(=O)c2ccco2)n(-c2ccccc2)n1)c1ccccc1 [Compound W1],> 40 µM
24,O=C(Nc1nc(NC(=O)c2ccccc2)n(-c2ccc3c(c2)OCCO3)n1)c1ccccc1 [Compound E2],> 40 µM
25,Cc1ccccc1C(=O)Nc1nc(NC(=O)/C=C/c2ccccc2)n(-c2ccccc2)n1 [Compound C2],> 40 µM
26,CN(C(=O)c1ccccc1)c1nc(N(C)C(=O)c2ccccc2)n(-c2ccccc2)n1 [J],> 40 µM
27,"O=C(Nc1nc(-c2ccccn2)nn1-c1ccccc1)c1ccccc1 [Compound Y1, N-(1-phenyl-3-(pyridin-2-yl)-1H-1,2,4-triazol-5-yl)benzamide]",> 40 µM

row,SMILES,EC50
1,Cc1ccccc1C(=O)Nc1nc(NC(=O)c2ccccc2C)n(-c2ccccn2)n1 [Compound X2],> 40 µM
2,O=C(Nc1nc(Nc2ccnc3ccccc23)n(-c2ccccc2)n1)c1ccccc1 [Compound I1],> 40 µM
3,O=C(Nc1nc(NC(=O)c2cccc([N+](=O)[O-])c2)n(-c2ccccc2)n1)c1ccccc1 [Compound V1],> 40 µM
4,Cc1ccccc1C(=O)Nc1nc(-c2cccnc2)nn1-c1ccccc1 [Compound T2],> 40 µM
5,CCN(CC)c1nc(Nc2nc(NC(=O)c3ccccc3)nn2-c2ccccc2)c2ccccc2n1 [W],> 40 µM
6,O=C(Nc1nc(Nc2ccncn2)n(-c2ccccc2)n1)c1ccccc1 [Compound H1],> 40 µM
7,Cc1ccccc1C(=O)Nc1nc(NC(=O)c2cccs2)nn1-c1ccccc1 [Compound K2],> 40 µM
8,O=C(Nc1nc(Nc2ncnc3ccccc23)nn1-c1ccccc1)c1ccccc1 [I],> 40 µM
9,O=C(Nc1nc(Nc2nc(O)nc3ccccc23)n(-c2ccccc2)n1)c1ccccc1 [Compound E1],> 40 µM
10,O=C(Nc1nc(NC(=O)c2ccccc2)n(C2CCOCC2)n1)c1ccccc1 [Compound I2],> 40 µM
11,O=C(Nc1nc(Nc2nc(O)c3ccccc3n2)n(-c2ccccc2)n1)c1ccccc1 [Compound O1],> 40 µM
12,Cc1ccccc1C(=O)Nc1nc(Nc2ncnc3ccccc23)n(-c2ccccc2)n1 [Compound R2],> 40 µM
13,Cc1ccccc1C(=O)Nc1nc(NC(=O)c2ccccc2C)n(C(C)C)n1 [Compound W2],> 40 µM
14,O=C(Nc1nc(NC(=O)c2ccccc2)n(-c2ccc(OC(F)(F)F)cc2)n1)c1ccccc1 [Compound Z1],> 40 µM
15,O=C(Nc1nc(NC(=O)c2ccccc2)n(-c2ccc3ccccc3n2)n1)c1ccccc1 [Compound D2],> 40 µM
16,"Cc1ccccc1C(=O)Nc1nc(NC(=O)c2ccccc2C)n(-c2ccccc2)n1 [Compound F, 2-methyl-N-[5-[(2-methylbenzoyl)amino]-1-phenyl-1,2,4-triazol-3-yl]benzamide]",> 40 µM
17,O=C(Nc1nc(NC(=O)c2nc3ccccc3s2)n(-c2ccccc2)n1)c1ccccc1 [Compound M2],> 40 µM
18,CC(C)C(=O)Nc1nc(Nc2ncnc3ccccc23)n(-c2ccccc2)n1 [Compound K1],> 40 µM
19,"O=C(/C=C/c1ccccc1)Nc1nc(NC(=O)c2ccccc2)nn1-c1ccccc1 [Compound C, N-(5-cinnamamido-1-phenyl-1H-1,2,4-triazol-3-yl)benzamide]",> 40 µM
20,O=C(Nc1nc(Nc2nc(N3CCCC3)c3ccccc3n2)n(-c2ccccc2)n1)c1ccccc1 [Compound B1],> 40 µM
21,"O=C(Nc1nc(Nc2ncnc3ccccc23)n(-c2ccccc2)n1)c1ccccc1 [Compound L, N-[1-phenyl-5-(quinazolin-4-ylamino)-1,2,4-triazol-3-yl]benzamide]",> 40 µM
22,COc1ccc(-n2nc(NC(=O)c3ccccc3)nc2NC(=O)c2ccccc2)cc1 [Compound F2],> 40 µM
23,CC(=O)Nc1nc(NC(C)=O)n(-c2ccccc2)n1 [Compound B],> 40 µM
24,Cc1ccccc1C(=O)Nc1nc(NC(=O)c2ccccc2)n(-c2ccccc2)n1 [Compound H],> 40 µM
25,O=C(Nc1nc(-c2ccccn2)nn1-c1ccccc1)c1ccccc1 [T],> 40 µM
26,C=CC(=O)Nc1nc(NC(=O)c2ccccc2)nn1-c1ccccc1 [Compound L2],> 40 µM
